# Data from PMC4552634, “A New Set of Chemical Starting Points with Plasmodium falciparum Transmission-Blocking Potential for Antimalarial Drug Discovery” (PLoS ONE, 2015).
# Several values for one entry are separate records, joined by “and”; a condition that tells them apart may be missing. Equal values may be shown once. Read-outs that look alike come from different tables or passages of the source.
# What was measured:
# [1] = test system: P. falciparum stage V gametocytes; experiment: Gametocytocidal ATP bioluminescence assay (single point 5 μM and 1 μM, dose-response); type: cell-based, Plasmodium falciparum; settings: for Ratio IC50 HepG2/IC50 P. falciparum: IC50 HepG2 divided by IC50 P. falciparum gametocytes; for inhibition at 5 µM: Plasmodium falciparum
# Procedure: Purified stage IV-V gametocytes were obtained as previously described [10]. Single point ATP bioluminescence assay and dose–response of positive hits was determined in accordance with the previously published protocol [10].
# HepG2 cells = experiment: Cytotoxicity in HepG2 cells (intracellular ATP, ATPlite, 48 h); type: cell-based, human; settings: HepG2 cells; IC50 per ratio column head; unit inferred
# [2] = test system: P. falciparum asexual stages; settings: asexual stages; TCAMS data; read-out: IC50 asexual; cited from earlier work
# [3] = P. falciparum gametocytes, average, read-out: IC50 Pf Gametocytes average, IC50 (µM) average
# [4] = sexual stages (gametocytes), dose-response, read-out: IC50 sexual
# [5] = P. falciparum gametocytes, 5 μM single concentration, 48 h, decrease of ATP level (S1 Table)
# [6] = gametocytes, primary screen at 5 μM (S9 Table, CSA analogs)
Structure (SMILES),Ratio IC50 HepG2/IC50 P. falciparum [1],"IC50 [1, 3]",IC50 (HepG2 cells),IC50 [2],"IC50 [1, 4]","% Inhibition [1, 5]","inhibition at 5 µM [1, 6]","inhibition at 5 µM [1, 5]"
CCCCOc1ccc(C(=O)C(CCC(CNC(C)(C)C)C(=O)c2ccc(OCCCC)cc2)CNC(C)(C)C)cc1 (stereo not shown) [TCMDC-124120],10,0.3 µM,3.1 µM,1020 nM,,,,
Nc1c(Cl)cc(C(O)CNCCCCCOCCCc2ccc(O)c3ncccc23)cc1Cl.O=C(O)/C=C/C(=O)O (stereo not shown) [TCMDC-132088],10,0.45 µM,4.51 µM,992 nM,0.455 µM,,,
O=C(O)CCSSc1cccc[n+]1[O-] [TCMDC-141973],29,0.27 µM,7.8 µM,808 nM,,,,
C#CCCOc1ccc2ccccc2c1CNCCCCCCNCc1c(OCCC#C)ccc2ccccc12 [TCMDC-137832],14,0.41 µM,5.5 µM,811 nM,0.405 µM,,,
C[C@H](Cc1ccc(Oc2ccc(C[C@@H](C)NC[C@H](O)c3cccc(Cl)c3)cc2)cc1)NC[C@H](O)c1cccc(Cl)c1 [TCMDC-131560],7,0.27 µM,1.91 µM,560 nM,,,,
CCN(Cc1ccc(-c2ccc(C(F)(F)F)cc2)cc1)C(=O)Cn1c(SCc2cccc(F)c2F)cc(=O)c2cc(CN3CCCCC3)ccc21 [TCMDC-141592],1.8,2.34 µM,4.2 µM,801 nM,2.33 µM,,,
CCN(CC)CCOc1ccc(C(O)(C#CC(O)(c2ccccc2)c2ccc(OCCN(CC)CC)cc2)c2ccccc2)cc1 (stereo not shown) [TCMDC-137197],5.34,0.69 µM,3.67 µM,1310 nM,0.687 µM,,,
COc1ccccc1CCNc1nc(C)cc(N[C@@H](Cc2ccccc2)C(=O)NCCOc2ccccc2)n1 [TCMDC-134862],<1,> 10 µM,11.1 µM,1210 nM,,,,
COc1ccc(CCNCCCCCCNCCc2ccc(Cl)c3ccccc23)cc1OC [TCMDC-131270],25,0.13 µM,3.23 µM,580 nM,0.127 µM,,,
COc1ccc2c(OC)c(CNCCCCCCNCc3ccc4cc(OC)ccc4c3OC)ccc2c1 [TCMDC-137953],2,1.54 µM,3.2 µM,920 nM,,,,
CC(C)CNCc1cccc(-c2cccc(CN(CCCN3CCN(C)CC3)C(=O)/C=C/c3ccccc3)c2)c1 [TCMDC-140541],13,0.56 µM,7.47 µM,926 nM,0.557 µM,,,
CCOc1ccccc1CCNC(C)Cc1ccc(C(=O)Nc2ccc(CC(C)NCCc3cccc(Cl)c3)cc2)cc1 (stereo not shown) [TCMDC-139805],5.71,0.61 µM,3.5 µM,539 nM,0.613 µM,,,
CC(Cc1ccc(OCCCCOc2ccccc2)cc1)NCCC1CCCN1C (stereo not shown) [TCMDC-140017],<16,0.095 µM,< 1.56 µM,40 nM,,,,
COc1cccc(OC)c1CN1CCC(N(C)CCCCCCCCCN2CCC(OC(=O)Nc3ccccc3-c3ccccc3)CC2)CC1 [TCMDC-134690],<6,0.26 µM,< 1.56 µM,319 nM,0.255 µM,,,
CN1CCCN(Cc2cccc(-c3ccc(NS(=O)(=O)c4cccc5cccnc45)cc3)c2)CC1 [TCMDC-136481],<1,> 10 µM,6.5 µM,957 nM,,,,
COc1cc2ccccc2cc1CCNCCCCNCCc1cc2ccccc2cc1OC [TCMDC-137944],32,0.11 µM,3.39 µM,403 nM,0.105 µM,,,
CN(C)CCNCc1ccc(-c2ccc3c(Nc4ccc(Oc5ccccc5)cc4)ccnc3c2)o1 [TCMDC-138399],23,0.33 µM,7.57 µM,280 nM,0.325 µM,,,
CCOc1cc(CNCCCCCCNCc2cc(OCC)c(OCC)c3ccccc23)c2ccccc2c1OCC [TCMDC-137939],3.62,0.75 µM,2.7 µM,284 nM,0.745 µM,,,
CCN(CC)/C(=N/C(=N)Nc1ccc(Cl)c(Cl)c1)NCCCCCCN/C(=N\C(=N)Nc1ccc(Cl)c(Cl)c1)N(CC)CC [TCMDC-131808],>7,3.44 µM,> 25 µM,761 nM,3.44 µM,,,
O=S(=O)(NCCN1CCCC1)c1cccc(-c2ccc(CNC3Cc4ccccc4C3)cc2)c1 [TCMDC-132241],3.72,2.15 µM,8 µM,660 nM,,,,
NC(N)=NN=Cc1c2ccccc2c(Cl)c2cc(Cl)ccc12 [TCMDC-137903],3.2,2.35 µM,7.5 µM,791 nM,2.35 µM,,,
Nc1c2ccccc2nc2ccc(-c3ccccc3)cc12 [TCMDC-132030],7,0.49 µM,3.3 µM,140 nM,0.485 µM,,,
CCCCOc1ccc(CNCCCCCCNCc2ccc(OCCCC)c3ccccc23)c2ccccc12 [TCMDC-137281],,,3.04 µM and 2.8 µM,1130 nM,,,,
Oc1c(CN2CCC(Cc3ccccc3)CC2)cc(Cl)c2cccnc12 [TCMDC-124594],16,0.6 µM,9.6 µM,881 nM,,,,
CCN(CC)/C(=N/C(=N)NCc1ccc(Cl)cc1Cl)NCCCCCCN/C(=N\C(=N)NCc1ccc(Cl)cc1Cl)N(CC)CC [TCMDC-131819],,0.3 µM,,218 nM,,,,

Structure (SMILES),Ratio IC50 HepG2/IC50 P. falciparum [1],"IC50 [1, 3]",IC50 (HepG2 cells),IC50 [2],"IC50 [1, 4]","% Inhibition [1, 5]","inhibition at 5 µM [1, 6]","inhibition at 5 µM [1, 5]"
Clc1ccc(OCCC2CCN(CCCCCCCN3CCC(CCOc4ccc(Cl)c(Cl)c4)CC3)CC2)cc1Cl [TCMDC-138967],6 and 5.59,0.7 µM and 0.47 µM,4.4 µM and 2.6 µM,624 nM,,,,
COc1ccc(CCNCCCCCCNCCc2ccc(Cl)cc2)c(Cl)c1OC [TCMDC-131272],24,0.26 µM,6.2 µM,825 nM,0.257 µM,,,
CCCCCCCn1c(=N)n(CC(O)c2ccc(Cl)c(Cl)c2)c2ccccc21 (stereo not shown) [TCMDC-124065],3,2.02 µM,6 µM,782 nM,,,,
CC(C)(C)c1ccc(-c2nc3c(ccc4nc(N)nc(N)c43)[nH]2)cc1 [TCMDC-137984],19,0.21 µM,3.85 µM,158 nM,0.205 µM,,,
CC(C)CNCc1ccc(-c2cccc(CN(C(=O)NC3CCCCC3)C3CCN(Cc4ccccc4)CC3)c2)cc1 [TCMDC-140628],1.09,1.66 µM,1.81 µM,805 nM,,,,
CCc1c(CCNCCCCCCNC(C)(C)Cc2ccc3c(c2CC)OCO3)ccc(OC)c1OC [TCMDC-132055],16,0.27 µM,4.37 µM,934 nM,0.266 µM,,,
COc1ccc2cc(CNCCCCCCNCc3ccc4cc(OC)ccc4c3)ccc2c1 [TCMDC-137797],4.48,0.67 µM,3 µM,624 nM,,,,
CCCCCOc1ccc(C(=NC)N(CCCCC)CCCCC)c2ccccc12 [TCMDC-137703],7,0.89 µM,6.3 µM,,0.885 µM,,,
CC(CN1CCN(CC(c2ccc(F)cc2)N2CCN(C)CC2)CC1)C(=O)c1ccc(O)cc1.O=C(O)/C=C\C(=O)O (stereo not shown) [TCMDC-125496],,,,,,30%,,
Cc1cccc(CN2CCC(Oc3ccc(NC(=O)c4cccs4)cc3Cl)CC2)n1 [TCMDC-133964],,,,,,24%,,
Cc1cc(NC(=O)c2ccco2)ccc1OC1CCN(Cc2ccccc2)CC1 [TCMDC-133965],,,,,,12%,,
COc1ccc2[nH]cc(C3CCN(Cc4ccc(NC(=O)c5ccc(-c6ccccc6)cc5)cc4)CC3)c2c1 [TCMDC-139069],,,,,,8%,,
COc1ccc2nccc([C@@H](O)CN3CCC(NCc4nc5c(OCc6ccccc6)cccc5[nH]4)CC3)c2c1 [TCMDC-141083],,,,,,34%,,
C=CC(C)C1OC(=O)c2cc(OC)cc(OC)c21 (stereo not shown) [TCMDC-138676],2,0.4 µM,0.8 µM,,,,,
Nc1ccnc2ccc(NC(=O)CCCCCc3ccccc3)cc12 [TCMDC-139070],,,,,,2%,,
CN(C)CCNCc1ccc(-c2ccc(-c3nc4ccccc4[nH]3)s2)cc1 [TCMDC-132683],,,,,,,58.1%,
Cc1cccc(C(=O)Nc2ccnc(N3CCC(N(C)Cc4cccc(C#N)c4)CC3)c2)c1 [TCMDC-134973],,,,,,-4.57%,,
COc1cc2ncnc(Nc3ccc(OCc4ccccc4)c(I)c3)c2cc1OC [TCMDC-131944],,,,,,-25%,,
OC(CN1CCN(c2cccc(Cl)c2)CC1)C(c1ccccc1)c1ccccc1 (stereo not shown) [TCMDC-123456],,,,,,0.238%,,
CCCCCCNC(=O)C1Cc2c([nH]c3ccccc23)C2(CCN(CCc3ccccc3)CC2)N1 (stereo not shown) [TCMDC-141085],,,,,,-58%,,
N#Cc1c(N2CCN(c3ccc(F)cc3)CC2)nc(N)c2c(N)nc3c(c12)CC(=O)N3C1CC1 [TCMDC-124490],,,,,,44%,,
CC(=O)c1c(C)[nH]c(C(=O)Nc2ccc(-c3nc4ccc(C)cc4s3)cc2)c1C [TCMDC-124493],,,,,,55%,,
FC(F)(F)c1ccc2[nH]c(-c3cccc(-c4ccc(CNCc5cnn(-c6ccccc6)n5)cc4)c3)nc2c1 [TCMDC-132964],,,,,,,,25%
CNCCNCc1ccc(-c2ccc(-c3nc4ccccc4[nH]3)s2)cc1 [TCMDC-132824],,,,,,,82.1%,
